The source of these data is patent publication US20200138020A1, “MICROBICIDAL COMPOSITION” (DDP Specialty Electronic Materials US 8, LLC, priority 2017, published 2020).

Like-named read-outs stand apart in the source and are kept apart here.

For experiment [1], the system named is Candida albicans ATCC 10231. The experiment is described as follows: Synergy test: high resolution MIC microtiter plate assay, Potato Dextrose Broth. It counts as cell-based. Conditions: C. albicans ATCC 10231, PDB, contact time 48 hours; for SI (Synergy Index, Qa/QA+Qb/QB): <1 synergy; for MIC: Candida albicans, ATCC10231, 25 °C. The text has this: (§1) One measure of synergism is the industrially accepted method described by Kull, F. C.; Eisman, P. C.; Sylwestrowicz, H. D. and Mayer, R. L., in Applied Microbiology 9:538-541 (1961), using the ratio determined by the formula:
(§2) Qa/QA+Qb/QB=Synergy Index (“SI”)
(§3) wherein: • QA=concentration of compound A (first component) in ppm, acting alone, which produced an end point (MIC of Compound A). • Qa=concentration of compound A in ppm, in the mixture, which produced an end point. • QB=concentration of compound B (second component) in ppm, acting alone, which produced an end point (MIC of Compound B). • Qb=concentration of compound B in ppm, in the mixture, which produced an end point.
(§4) When the sum of Qa/QA and Qb/QB is greater than one, antagonism is indicated. […] The lower the SI, the greater is the synergy shown by that particular mixture. The minimum inhibitory concentration (MIC) of a microbicide is the lowest concentration tested under a specific set of conditions that prevents the growth of the tested microorganisms.
(§5) Synergy tests were conducted using standard microtiter plate assays with media designed for optimal growth of the test microorganism. Potato Dextrose Broth (PDB medium) was used for testing yeast and mold. In this method, a wide range of combinations of microbicides and other personal care raw materials was tested by conducting high resolution MIC assays in the presence of lactic acid. High resolution MICs were determined by adding varying amounts of microbicide to one column of a microtitre plate and doing subsequent […] dilutions using an automated liquid handling system to obtain a series of closely spaced endpoints.
(§6) The synergy of the combinations of the present invention was determined against a yeast, Candida albicans (C. albicans ATCC 10231) and a mold, Aspergillus brasiliensis (A. brasiliensis ATCC 16404). The yeast and mold were used at concentrations of 5×10^5 cells per mL. These microorganisms are representative of natural contaminants in many consumer and industrial applications.
(§7) In this test, First Component (A) was lactic acid and the Second Component (B) was phenethyl alcohol.
• Candida albicans • ATCC 10231 • Potato Dextrose Broth • Contact Time=48 hours

Experiment [2] deals with Aspergillus brasiliensis ATCC 16404. Described as above. The class given is cell-based. Conditions: A. brasiliensis ATCC 16404, PDB, contact time 3 days; for SI (Synergy Index, Qa/QA+Qb/QB): <1 synergy; for MIC: Aspergillus brasiliensis, ATCC16404, 72 h, 25 °C.
Text: as §1, §2, §3, §4, §5, §6, §7
• Aspergillus brasiliensis • ATCC 16404 • Potato Dextrose Broth • Contact Time=3 days

The mark [3] stands for this setting: read-out: MIC for lactic acid alone (QA).
Where [4] appears, read: read-out: MIC for phenethyl alcohol alone (QB).

What is called MIC is the smallest concentration in the dilution series that meets the test's criterion for growth inhibition. Turning to `CC(O)C(=O)O` (centres unmarked) [Lactic Acid, 2-hydroxypropanoic acid], the “SI (Synergy Index, Qa/QA+Qb/QB)” value in experiment [1] and in experiment [2] was 1.00 throughout. Further, the MIC in experiment [1] (setting [3]) worked out at 6000 µg/mL; in experiment [2] (setting [3]), 30000 µg/mL.
For `OCCc1ccccc1` [Phenethyl Alcohol, 2-phenylethan-1-ol], the “SI (Synergy Index, Qa/QA+Qb/QB)” value in experiment [1] and in experiment [2] was 1.00 throughout. Besides, the MIC in experiment [1] (setting [4]) and in experiment [2] (setting [4]) was 10000 µg/mL in each case.
